Columns and labels:
OVCAR-4 = type: cell-based; conditions: OVCAR-4, Ovarian; for CC50: read-out: 50% lethal concentration (LC50)
BT-549 = type: cell-based; conditions: BT-549, Breast
CCRF-CEM = conditions: for CC50: read-out: 50% lethal concentration (LC50), Leukemia
SR = conditions: for CC50: read-out: 50% lethal concentration (LC50), Leukemia
A549/ATCC = conditions: for Total growth inhibition (TGI): Non-Small Cell Lung; for GI50: Non-Small-Cell Lung; for CC50: read-out: 50% lethal concentration (LC50), Non-Small Cell Lung
EKVX = conditions: for Total growth inhibition (TGI): Non-Small Cell Lung; for GI50: Non-Small-Cell Lung; for CC50: read-out: 50% lethal concentration (LC50), Non-Small Cell Lung
HOP-62 = conditions: for Total growth inhibition (TGI) / CC50: HOP-62, Non-Small Cell Lung; for GI50: HOP-62, Non-Small-Cell Lung; for CC50: read-out: 50% lethal concentration (LC50)
HOP-92 = conditions: for GI50: HOP-92, Non-Small-Cell Lung
NCI-H226 = conditions: for Total growth inhibition (TGI) / CC50: NCI-H226, Non-Small Cell Lung; for GI50: NCI-H226, Non-Small-Cell Lung; for CC50: read-out: 50% lethal concentration (LC50)
NCI-H23 = conditions: for Total growth inhibition (TGI) / CC50: NCI-H23, Non-Small Cell Lung; for GI50: NCI-H23, Non-Small-Cell Lung; for CC50: read-out: 50% lethal concentration (LC50)
NCI-H460 = conditions: for Total growth inhibition (TGI) / CC50: NCI-H460, Non-Small Cell Lung; for GI50: NCI-H460, Non-Small-Cell Lung; for CC50: read-out: 50% lethal concentration (LC50)
NCI-H522 = conditions: for Total growth inhibition (TGI) / CC50: NCI-H522, Non-Small Cell Lung; for GI50: NCI-H522, Non-Small-Cell Lung; for CC50: read-out: 50% lethal concentration (LC50)
HCC-2998 = conditions: HCC-2998, Colon
HCT-15 = conditions: HCT-15, Colon; for CC50: read-out: 50% lethal concentration (LC50)
HT29 = conditions: HT29, Colon; for CC50: read-out: 50% lethal concentration (LC50)
LOX IMVI = conditions: for GI50 / Total growth inhibition (TGI): Melanoma; for CC50: read-out: 50% lethal concentration (LC50), Melanoma
MDA-MB-435 = conditions: MDA-MB-435, Melanoma; for CC50: read-out: 50% lethal concentration (LC50)
SK-MEL-2 = conditions: SK-MEL-2, Melanoma
UACC-257 = conditions: UACC-257, Melanoma
UACC-62 = conditions: UACC-62, Melanoma; for CC50: read-out: 50% lethal concentration (LC50)
IGROV1 = conditions: IGROV1, Ovarian; for CC50: read-out: 50% lethal concentration (LC50)
OVCAR-3 = conditions: OVCAR-3, Ovarian; for CC50: read-out: 50% lethal concentration (LC50)
OVCAR-5 = conditions: OVCAR-5, Ovarian; for CC50: read-out: 50% lethal concentration (LC50)
NCI/ADR-RES = conditions: for GI50 / Total growth inhibition (TGI): Ovarian; for CC50: read-out: 50% lethal concentration (LC50), Ovarian
SK-OV-3 = conditions: SK-OV-3, Ovarian; for CC50: read-out: 50% lethal concentration (LC50)
A498 = conditions: A498, Renal; for CC50: read-out: 50% lethal concentration (LC50)
CAKI-1 = conditions: CAKI-1, Renal; for CC50: read-out: 50% lethal concentration (LC50)
RXF 393 = conditions: RXF 393, Renal; for CC50: read-out: 50% lethal concentration (LC50)
DU-145 = conditions: DU-145, Prostate
HS 578T = conditions: for GI50 / Total growth inhibition (TGI): Breast; for CC50: read-out: 50% lethal concentration (LC50), Breast
MDA-MB-468 = conditions: MDA-MB-468, Breast; for CC50: read-out: 50% lethal concentration (LC50)

Compound: C=C1CCC2C3(C)COC(c4cn(-c5ccccc5)nc4-c4cccc(Br)c4)OC3CCC2(C)C1CC=C1C(=O)OCC1O (centres unmarked) [1e]
- GI50 (OVCAR-4): 2.49 µM
- CC50 (OVCAR-4): > 100 µM
- GI50 (BT-549): 1.46 µM
- Total growth inhibition (TGI) (BT-549): 2.99 µM
- GI50 (CCRF-CEM; Leukemia): 0.7 µM
- CC50 (CCRF-CEM): > 100 µM
- GI50 (SR; Leukemia): 1.77 µM
- CC50 (SR): > 100 µM
- Total growth inhibition (TGI) (A549/ATCC): 19.9 µM
- GI50 (A549/ATCC): 3.07 µM
- CC50 (A549/ATCC): > 100 µM
- Total growth inhibition (TGI) (EKVX): 5.16 µM
- GI50 (EKVX): 2.1 µM
- CC50 (EKVX): > 100 µM
- Total growth inhibition (TGI) (HOP-62): 4.94 µM
- GI50 (HOP-62): 2.08 µM
- CC50 (HOP-62): > 100 µM
- Total growth inhibition (TGI) (HOP-92; HOP-92, Non-Small Cell Lung): 3.41 µM
- GI50 (HOP-92): 1.75 µM
- Total growth inhibition (TGI) (NCI-H226): 3.43 µM
- GI50 (NCI-H226): 1.75 µM
- CC50 (NCI-H226): 6.71 µM
- Total growth inhibition (TGI) (NCI-H23): 4.07 µM
- GI50 (NCI-H23): 1.9 µM
- CC50 (NCI-H23): 8.74 µM
- Total growth inhibition (TGI) (NCI-H460): 3.49 µM
- GI50 (NCI-H460): 1.78 µM
- CC50 (NCI-H460): 6.83 µM
- Total growth inhibition (TGI) (NCI-H522): 2.9 µM
- GI50 (NCI-H522): 1.5 µM
- CC50 (NCI-H522): 5.62 µM
- GI50 (HCC-2998): 1.72 µM
- Total growth inhibition (TGI) (HCC-2998): 3.33 µM
- GI50 (HCT-15): 1.6 µM
- Total growth inhibition (TGI) (HCT-15): 3.55 µM
- CC50 (HCT-15): 7.85 µM
- GI50 (HT29): 1.66 µM
- Total growth inhibition (TGI) (HT29): 3.46 µM
- CC50 (HT29): 7.23 µM
- GI50 (LOX IMVI): 1.64 µM
- Total growth inhibition (TGI) (LOX IMVI): 3.03 µM
- CC50 (LOX IMVI): 5.59 µM
- GI50 (MDA-MB-435): 1.72 µM
- Total growth inhibition (TGI) (MDA-MB-435): 3.6 µM
- CC50 (MDA-MB-435): 7.51 µM
- GI50 (SK-MEL-2): 1.78 µM
- Total growth inhibition (TGI) (SK-MEL-2): 3.38 µM
- GI50 (UACC-257): 1.77 µM
- Total growth inhibition (TGI) (UACC-257): 3.45 µM
- GI50 (UACC-62): 1.68 µM
- Total growth inhibition (TGI) (UACC-62): 3.4 µM
- CC50 (UACC-62): 6.9 µM
- GI50 (IGROV1): 2.2 µM
- Total growth inhibition (TGI) (IGROV1): 4.83 µM
- CC50 (IGROV1): > 100 µM
- GI50 (OVCAR-3): 1.69 µM
- Total growth inhibition (TGI) (OVCAR-3): 3.21 µM
- CC50 (OVCAR-3): 6.08 µM
- GI50 (OVCAR-5): 1.85 µM
- Total growth inhibition (TGI) (OVCAR-5): 4.35 µM
- CC50 (OVCAR-5): 47.7 µM
- GI50 (NCI/ADR-RES): 2.15 µM
- Total growth inhibition (TGI) (NCI/ADR-RES): 5.37 µM
- CC50 (NCI/ADR-RES): > 100 µM
- GI50 (SK-OV-3): 4.16 µM
- Total growth inhibition (TGI) (SK-OV-3): 48.3 µM
- CC50 (SK-OV-3): > 100 µM
- GI50 (A498): 4.33 µM
- Total growth inhibition (TGI) (A498): 8.1 µM
- CC50 (A498): 44 µM
- GI50 (CAKI-1): 1.42 µM
- Total growth inhibition (TGI) (CAKI-1): 2.98 µM
- CC50 (CAKI-1): 6.04 µM
- GI50 (RXF 393): 1.18 µM
- Total growth inhibition (TGI) (RXF 393): 2.93 µM
- CC50 (RXF 393): 5.51 µM
- GI50 (DU-145): 2.12 µM
- Total growth inhibition (TGI) (DU-145): 4.57 µM
- CC50 (DU-145; read-out: 50% lethal concentration (LC50)): 9.82 µM
- GI50 (HS 578T): 1.94 µM
- Total growth inhibition (TGI) (HS 578T): 5.19 µM
- CC50 (HS 578T): > 100 µM
- GI50 (MDA-MB-468): 1.82 µM
- Total growth inhibition (TGI) (MDA-MB-468): 3.41 µM
- CC50 (MDA-MB-468): 6.37 µM

Compound: C=C1CCC2C3(C)COC(c4cn(-c5ccccc5)nc4-c4ccc(Cl)cc4)OC3CCC2(C)C1CC=C1C(=O)OCC1O (centres unmarked) [1g]
- GI50 (OVCAR-4): 2.03 µM
- Total growth inhibition (TGI) (OVCAR-4): 5.15 µM
- CC50 (OVCAR-4): > 100 µM
- GI50 (BT-549): 1.49 µM
- Total growth inhibition (TGI) (BT-549): 3.37 µM
- GI50 (CCRF-CEM; Leukemia): 0.92 µM
- Total growth inhibition (TGI) (CCRF-CEM; Leukemia): > 100 µM
- CC50 (CCRF-CEM): > 100 µM
- GI50 (SR; Leukemia): 2.53 µM
- Total growth inhibition (TGI) (SR; Leukemia): > 100 µM
- CC50 (SR): > 100 µM
- Total growth inhibition (TGI) (A549/ATCC): 36.3 µM
- GI50 (A549/ATCC): 3.57 µM
- CC50 (A549/ATCC): > 100 µM
- Total growth inhibition (TGI) (EKVX): 5.28 µM
- GI50 (EKVX): 2.24 µM
- CC50 (EKVX): > 100 µM
- Total growth inhibition (TGI) (HOP-62): 4.95 µM
- GI50 (HOP-62): 2.36 µM
- CC50 (HOP-62): > 100 µM
- Total growth inhibition (TGI) (HOP-92; HOP-92, Non-Small Cell Lung): 3.08 µM
- GI50 (HOP-92): 1.5 µM
- CC50 (HOP-92; read-out: 50% lethal concentration (LC50), HOP-92, Non-Small Cell Lung): 6.32 µM
- Total growth inhibition (TGI) (NCI-H226): 3.05 µM
- GI50 (NCI-H226): 1.55 µM
- CC50 (NCI-H226): 5.99 µM
- Total growth inhibition (TGI) (NCI-H23): 3.59 µM
- GI50 (NCI-H23): 1.73 µM
- CC50 (NCI-H23): 7.45 µM
- Total growth inhibition (TGI) (NCI-H460): 3.72 µM
- GI50 (NCI-H460): 1.79 µM
- CC50 (NCI-H460): 7.76 µM
- Total growth inhibition (TGI) (NCI-H522): 3.12 µM
- GI50 (NCI-H522): 1.58 µM
- CC50 (NCI-H522): 6.17 µM
- GI50 (HCC-2998): 1.88 µM
- Total growth inhibition (TGI) (HCC-2998): 3.39 µM
- GI50 (HCT-15): 1.59 µM
- Total growth inhibition (TGI) (HCT-15): 3.21 µM
- CC50 (HCT-15): 6.51 µM
- GI50 (HT29): 1.69 µM
- Total growth inhibition (TGI) (HT29): 4.64 µM
- CC50 (HT29): > 100 µM
- GI50 (LOX IMVI): 1.58 µM
- Total growth inhibition (TGI) (LOX IMVI): 2.94 µM
- CC50 (LOX IMVI): 5.48 µM
- GI50 (MDA-MB-435): 1.65 µM
- Total growth inhibition (TGI) (MDA-MB-435): 3.28 µM
- CC50 (MDA-MB-435): 6.51 µM
- GI50 (SK-MEL-2): 1.77 µM
- Total growth inhibition (TGI) (SK-MEL-2): 3.25 µM
- GI50 (UACC-257): 1.8 µM
- Total growth inhibition (TGI) (UACC-257): 3.63 µM
- GI50 (UACC-62): 1.68 µM
- Total growth inhibition (TGI) (UACC-62): 3.27 µM
- CC50 (UACC-62): 6.39 µM
- GI50 (IGROV1): 4.29 µM
- Total growth inhibition (TGI) (IGROV1): 46.1 µM
- CC50 (IGROV1): > 100 µM
- GI50 (OVCAR-3): 1.78 µM
- Total growth inhibition (TGI) (OVCAR-3): 3.72 µM
- CC50 (OVCAR-3): 7.77 µM
- GI50 (OVCAR-5): 1.98 µM
- Total growth inhibition (TGI) (OVCAR-5): 5.38 µM
- CC50 (OVCAR-5): > 100 µM
- GI50 (NCI/ADR-RES): 1.83 µM
- Total growth inhibition (TGI) (NCI/ADR-RES): 4.24 µM
- CC50 (NCI/ADR-RES): 9.87 µM
- GI50 (SK-OV-3): 3.04 µM
- Total growth inhibition (TGI) (SK-OV-3): 1.67 µM
- CC50 (SK-OV-3): > 100 µM
- GI50 (A498): 5.2 µM
- Total growth inhibition (TGI) (A498): 19 µM
- CC50 (A498): 53.7 µM
- GI50 (CAKI-1): 1.63 µM
- Total growth inhibition (TGI) (CAKI-1): 3.28 µM
- CC50 (CAKI-1): 6.59 µM
- GI50 (RXF 393): 1.79 µM
- Total growth inhibition (TGI) (RXF 393): 3.37 µM
- CC50 (RXF 393): 6.33 µM
- GI50 (DU-145): 2.05 µM
- Total growth inhibition (TGI) (DU-145): 4.1 µM
- GI50 (HS 578T): 1.75 µM
- Total growth inhibition (TGI) (HS 578T): 3.24 µM
- CC50 (HS 578T): 6.45 µM
- GI50 (MDA-MB-468): 2 µM
- Total growth inhibition (TGI) (MDA-MB-468): 4.49 µM
- CC50 (MDA-MB-468): 6.36 µM

— article PMC12298351, “Novel 3,19-(N-Phenyl-3-(4-fluorophenyl)-pyrazole) Acetal of Andrographolide Promotes Cell Cycle Arrest and Apoptosis in MDA-MB-231 Breast Cancer Cells” (Pharmaceuticals, 2025)
